The source of these data is publication PMC10057847, “Precision engineering of biological function with large-scale measurements and machine learning” (PLOS ONE, 2023).

Experiment in all cases: In vivo IPTG dose-response of LacI-regulated eYFP expression from the pVER plasmid in E. coli grown in rich M9 medium at 37 °C, measured by flow cytometry and fitted to the Hill equation by Bayesian MCMC (posterior mean and SD).
Common to all, as to settings: read-out: log_ec50 (base-10 logarithm of EC50 in μmol/L) (converted)
For orientation: In flow cytometry, cells or beads pass a laser one at a time.

For test [1], the target named is T1, pVER-IPTG-WT (Escherichia coli, UniProt P03023).
T1 construct: gene lacI; full-length LacI expressed from pVER plasmid; wild type
In kind it is cell-based. The protocol:
(§1) All reported measurements were completed using E. coli strain MG1655Δlac, in which the lactose operon of E. coli strain MG1655 (ATCC #47076) was replaced with the bleomycin resistance gene from Streptoalloteichus hindustanus (Shble).
Dose-response curves were measured with flow cytometry using E. coli MG1655Δlac transformed with variants of the pVER plasmid, described previously. The plasmid contained different variants of the lacI coding DNA sequence (CDS), as described in the text, and an expression cassette with enhanced yellow fluorescent protein (eYFP) under the control of the lactose operator (lacO). The lacI CDS was verified with Sanger sequencing for each variant. […]
(§2) Flow cytometry samples were measured with an Attune NxT flow cytometer equipped with a 96-well plate autosampler using a 488 nm excitation laser and a 530 nm ± 15 nm bandpass emission filter. Blank samples were measured with each batch of cell measurements, and an automated gating algorithm was used to discriminate cell events from non-cell events. Fluorescence calibration beads (Spherotech, part no. RCP-30-20A) were also measured with each batch of samples to facilitate calibration of flow cytometry data to molecules of equivalent fluorescein (MEF). […]

The target in test [2] is T2, pVER-IPTG-004 (Escherichia coli, UniProt P03023, A87P/E357G/V301M).
T2 construct: gene lacI; LacI expressed from pVER plasmid
The format is cell-based, E. coli MG1655Δlac. The protocol:
as §1
(§3) Dose-response curves were measured with flow cytometry using E. coli MG1655Δlac transformed with variants of the pVER plasmid, described previously. The plasmid contained different variants of the lacI coding DNA sequence (CDS), as described in the text, and an expression cassette with enhanced yellow fluorescent protein (eYFP) under the control of the lactose operator (lacO). The lacI CDS was verified with Sanger sequencing for each variant.
(§4) All cultures were grown in a rich M9 media (3 g/L KH2PO4, 6.78 g/L Na2HPO4, 0.5 g/L NaCl, 1 g/L NH4Cl, 0.1 mmol/L CaCl2, 2 mmol/L MgSO4, 4% glycerol, and 20 g/L casamino acids) supplemented with 50 μg/mL kanamycin.
(§5) • Prepare first growth plate, with 450 μL rich M9 media in each well. • Pipette 50 μL of starter culture into each well in rows B-G of the plate (leaving rows A and H blank). • Use a E. coli containing a different lacI variant for each row. • Seal first growth plate with gas permeable membrane. • Incubate plate in plate reader for 12 h to 14 h. • Grow to stationary to provide a reproducible starting point for each measurement. • Prepare second growth plate with 490 μL in each well. • Dilution series of isopropyl-β-D-thiogalactopyranoside (IPTG): 11 columns of a 2-fold serial dilution gradient and one column with zero IPTG. • Ten minutes before the end of the incubation cycle for the first growth plate, move the second growth plate to a heated station set to 47°C. • Ten minutes at 47°C will pre-warm the media in the plate to 37°C. • De-seal the first growth plate (after completion of the stationary-phase incubation cycle). • Pipette 10 μL from each well in the first growth plate to the corresponding well in the second growth plate. • 50-fold dilution; using a 96-channel pipetting head. • Seal second growth plate with gas permeable membrane. • Incubate second growth plate in plate reader for 160 minutes. • Sufficient for approximately 10-fold increase in cell density or 3.3 doublings. • Prepare third growth plate with 450 μL in each well. • Same dilution series as in second growth plate. • Ten minutes before the end of the incubation cycle for the second growth plate, move the third growth plate to a heated station set to 47°C. • De-seal the second growth plate (after completion of the 160 minute incubation cycle). • Pipette 50 μL from each well in the second growth plate to the corresponding well in the third growth plate. • 10-fold dilution; using a 96-channel pipetting head. • Seal third growth plate with gas permeable membrane. • Incubate third growth plate in plate reader for 160 minutes. • Prepare flow cytometry sample plate (round-bottom 96-well plate, Falcon, 351177). • Each well in rows B-G: 195 μL 1x PBS with 170 μg/mL chloramphenicol (Fisher BioReagents, cat. #BP904-100). • Rows A and H: PBS blanks, focusing fluid blanks, and space for calibration bead sample • At the end of the incubation cycle for the third growth plate, pipette 5 μL from each well to the corresponding well in the flow cytometry sample plate.
as §2

The target in test [3] is T3, pVER-IPTG-002 (Escherichia coli, UniProt P03023, M254I/S158R/T154I/V238D/V264I/V96E).
T3 construct: gene lacI; LacI expressed from pVER plasmid
In kind it is cell-based, E. coli MG1655Δlac. How it is done: as §1, §3, §4, §5, §2

Test [4] addresses T4, pVER-IPTG-080 (Escherichia coli, UniProt P03023, A109E/D165V/E259G/G166A/R255C).
T4 construct: gene lacI; LacI expressed from pVER plasmid
The format is cell-based, E. coli MG1655Δlac. The protocol:
as §1, §3, §4, §5, §2

Test [5] addresses T5, pVER-IPTG-002(S70R) (Escherichia coli, UniProt P03023, M254I/S158R/S70R/T154I/V238D/V264I/V96E).
T5 construct: gene lacI; LacI expressed from pVER plasmid
In kind it is cell-based, E. coli MG1655Δlac. The protocol: as §1, §3, §4, §5, §2

In test [6] the target is T6, pVER-IPTG-004(S70R) (Escherichia coli, UniProt P03023, A87P/E357G/S70R/V301M).
T6 construct: gene lacI; LacI expressed from pVER plasmid
In kind it is cell-based, E. coli MG1655Δlac. How it is done: as §1, §3, §4, §5, §2

The target of test [7] is T7, pVER-IPTG-008 (Escherichia coli, UniProt P03023, A266T/I237T/I289F/S61L/T258S).
T7 construct: gene lacI; LacI expressed from pVER plasmid; stop codon at 351
The format is cell-based, E. coli MG1655Δlac. The protocol: as §1, §3, §4, §5, §2

Test [8] addresses T8, pVER-IPTG-075 (also pVER-IPTG-138) (Escherichia coli, UniProt P03023, A81S/E100K/L148V/Q60R/S221N/S28G/T34M/V271L).
T8 construct: gene lacI; LacI expressed from pVER plasmid
In kind it is cell-based, E. coli MG1655Δlac. The protocol: as §1, §3, §4, §5, §2

The target of test [9] is T9, pVER-IPTG-004(V136E) (Escherichia coli, UniProt P03023, A87P/E357G/V136E/V301M).
T9 construct: gene lacI; LacI expressed from pVER plasmid
In kind it is cell-based, E. coli MG1655Δlac. How it is done: as §1, §3, §4, §5, §2

The target of test [10] is T10, pVER-IPTG-009 (Escherichia coli, UniProt P03023, I210L/I283N/M254T/N157D/P76Q/Q181H/V150A).
T10 construct: gene lacI; LacI expressed from pVER plasmid
In kind it is cell-based, E. coli MG1655Δlac. How it is done:
as §1, §3, §4, §5, §2

Test [11] concerns the target T11, pVER-IPTG-001 (Escherichia coli, UniProt P03023, D130E/D267N/N333I/Q55H/T258I/V192A/Y273H).
T11 construct: gene lacI; LacI expressed from pVER plasmid
In kind it is cell-based, E. coli MG1655Δlac. The protocol: as §1, §3, §4, §5, §2

Test [12] addresses T12, pVER-IPTG-077 (Escherichia coli, UniProt P03023, A222T/D152E/I64V/K327N/L295M/N208I/Q131R/T141A/V95M).
T12 construct: gene lacI; LacI expressed from pVER plasmid
The format is cell-based, E. coli MG1655Δlac. The protocol:
as §1, §3, §4, §5, §2

Values joined by “and” are separate entries in the source; they are usually repeats but may differ in a detail not shown here. Identical values can stand only once.

T8 sequence (P03023 whole entry S28G/T34M/Q60R/A81S/E100K/L148V/S221N/V271L): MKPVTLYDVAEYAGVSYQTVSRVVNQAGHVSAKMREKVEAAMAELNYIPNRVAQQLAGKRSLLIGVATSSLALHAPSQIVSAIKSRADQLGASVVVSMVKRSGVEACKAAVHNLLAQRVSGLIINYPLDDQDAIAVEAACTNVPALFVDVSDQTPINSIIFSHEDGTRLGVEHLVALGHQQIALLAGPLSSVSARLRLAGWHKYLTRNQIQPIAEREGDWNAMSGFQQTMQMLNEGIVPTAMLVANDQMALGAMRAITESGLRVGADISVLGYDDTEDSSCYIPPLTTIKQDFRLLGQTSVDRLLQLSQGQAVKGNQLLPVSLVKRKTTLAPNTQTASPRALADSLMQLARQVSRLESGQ
T9 sequence (P03023 whole entry A87P/V136E/V301M/E357G): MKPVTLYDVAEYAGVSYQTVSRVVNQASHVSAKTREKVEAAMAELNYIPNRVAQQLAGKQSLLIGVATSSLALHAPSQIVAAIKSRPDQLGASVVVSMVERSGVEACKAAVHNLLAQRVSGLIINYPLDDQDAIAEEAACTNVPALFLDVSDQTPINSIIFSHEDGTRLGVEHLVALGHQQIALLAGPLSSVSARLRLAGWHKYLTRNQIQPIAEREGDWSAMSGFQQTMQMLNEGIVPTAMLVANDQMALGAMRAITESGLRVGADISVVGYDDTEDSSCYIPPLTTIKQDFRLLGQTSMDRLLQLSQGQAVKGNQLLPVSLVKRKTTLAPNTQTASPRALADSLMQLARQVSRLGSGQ
T6 sequence (P03023 whole entry S70R/A87P/V301M/E357G): as the sequence (P03023 whole entry A87P/V136E/V301M/E357G) above, with S70R, E136V counted along it
T2 sequence (P03023 whole entry A87P/V301M/E357G): as the sequence (P03023 whole entry A87P/V136E/V301M/E357G) above, with E136V counted along it
T5 sequence (P03023 whole entry S70R/V96E/T154I/S158R/V238D/M254I/V264I): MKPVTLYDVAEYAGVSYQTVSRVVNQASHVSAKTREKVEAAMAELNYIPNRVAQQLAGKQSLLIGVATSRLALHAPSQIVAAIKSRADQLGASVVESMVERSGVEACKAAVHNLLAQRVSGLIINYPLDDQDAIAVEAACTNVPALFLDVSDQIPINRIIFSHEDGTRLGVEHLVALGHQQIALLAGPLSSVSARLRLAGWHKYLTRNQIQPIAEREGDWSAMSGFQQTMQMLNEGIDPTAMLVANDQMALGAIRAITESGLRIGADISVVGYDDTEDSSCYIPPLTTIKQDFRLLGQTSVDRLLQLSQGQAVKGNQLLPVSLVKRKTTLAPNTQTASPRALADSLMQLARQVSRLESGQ
T10 sequence (P03023 whole entry P76Q/V150A/N157D/Q181H/I210L/M254T/I283N): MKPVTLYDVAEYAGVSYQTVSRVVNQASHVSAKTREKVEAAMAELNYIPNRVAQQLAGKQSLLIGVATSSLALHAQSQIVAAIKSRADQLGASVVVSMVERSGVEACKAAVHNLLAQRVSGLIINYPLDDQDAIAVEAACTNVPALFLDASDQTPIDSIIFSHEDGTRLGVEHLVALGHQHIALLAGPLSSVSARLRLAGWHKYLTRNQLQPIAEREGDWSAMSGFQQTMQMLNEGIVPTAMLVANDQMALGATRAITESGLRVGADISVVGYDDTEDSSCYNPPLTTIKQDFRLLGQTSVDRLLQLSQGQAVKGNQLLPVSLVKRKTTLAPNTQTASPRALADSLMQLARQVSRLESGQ
T11 sequence (P03023 whole entry Q55H/D130E/V192A/T258I/D267N/Y273H/N333I): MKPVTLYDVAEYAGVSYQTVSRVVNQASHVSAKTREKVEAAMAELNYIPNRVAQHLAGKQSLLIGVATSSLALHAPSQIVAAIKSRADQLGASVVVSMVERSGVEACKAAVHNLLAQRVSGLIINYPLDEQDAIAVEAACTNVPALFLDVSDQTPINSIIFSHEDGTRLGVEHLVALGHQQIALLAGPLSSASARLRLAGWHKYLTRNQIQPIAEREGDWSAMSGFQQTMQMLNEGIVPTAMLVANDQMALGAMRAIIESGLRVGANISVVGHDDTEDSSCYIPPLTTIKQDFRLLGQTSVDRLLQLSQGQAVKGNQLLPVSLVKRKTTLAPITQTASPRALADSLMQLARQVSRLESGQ
T7 sequence (P03023 1-350 S61L/I237T/T258S/A266T/I289F): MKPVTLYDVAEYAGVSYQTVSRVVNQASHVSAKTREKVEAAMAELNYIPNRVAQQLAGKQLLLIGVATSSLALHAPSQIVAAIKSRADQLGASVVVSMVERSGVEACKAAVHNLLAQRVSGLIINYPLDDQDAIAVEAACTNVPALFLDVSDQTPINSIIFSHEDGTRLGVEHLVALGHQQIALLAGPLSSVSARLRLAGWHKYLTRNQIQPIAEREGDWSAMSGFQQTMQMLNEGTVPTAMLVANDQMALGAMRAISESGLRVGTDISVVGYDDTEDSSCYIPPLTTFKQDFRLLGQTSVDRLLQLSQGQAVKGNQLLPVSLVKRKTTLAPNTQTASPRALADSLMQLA
T3 sequence (P03023 whole entry V96E/T154I/S158R/V238D/M254I/V264I): as the sequence (P03023 whole entry S70R/V96E/T154I/S158R/V238D/M254I/V264I) above, with R70S counted along it
T4 sequence (P03023 whole entry A109E/D165V/G166A/R255C/E259G): as the sequence (P03023 whole entry A87P/V136E/V301M/E357G) above, with P87A, A109E, E136V, D165V, G166A, R255C, E259G, M301V, G357E counted along it
T1 sequence (P03023 whole entry): as the sequence (P03023 whole entry A87P/V136E/V301M/E357G) above, with P87A, E136V, M301V, G357E counted along it
T12 sequence (P03023 whole entry I64V/V95M/Q131R/T141A/D152E/N208I/A222T/L295M/K327N): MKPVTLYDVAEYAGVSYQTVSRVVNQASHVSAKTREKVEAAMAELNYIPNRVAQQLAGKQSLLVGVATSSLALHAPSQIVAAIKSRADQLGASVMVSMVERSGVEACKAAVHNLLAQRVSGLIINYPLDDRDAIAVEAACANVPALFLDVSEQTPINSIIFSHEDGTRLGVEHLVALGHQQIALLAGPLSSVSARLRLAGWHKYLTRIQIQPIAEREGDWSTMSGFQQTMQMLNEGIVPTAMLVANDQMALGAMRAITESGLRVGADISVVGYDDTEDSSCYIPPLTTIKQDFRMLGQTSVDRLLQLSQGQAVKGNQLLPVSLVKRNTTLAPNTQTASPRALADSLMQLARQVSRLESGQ

With `CC(C)S[C@@H]1O[C@H](CO)[C@H](O)[C@H](O)[C@H]1O` [IPTG, isopropyl-β-D-thiogalactopyranoside], the EC50 in [1] was 119 µmol/L; in [2], 234 µmol/L; in [3], 233 µmol/L; in test [4] it was 6.96 µmol/L; in test [5], 4690 µmol/L; in test [6], 3890 µmol/L. Further, the EC50 in test [7] is 77.3 µmol/L; in [8] it was 3 µmol/L and 2.99 µmol/L; in test [9], 421000 µmol/L; in test [10], 169 µmol/L; in [11], 774 µmol/L; in [12], 2.95 µmol/L.
